We go through 16 compounds from patent US9409915B2, “Substituted aza-bicyclic imidazole derivatives useful as TRPM8 receptor modulators” (Janssen Pharmaceutica NV, priority 2010, dated 2016).

Structures can show the parent of a compound that is named as a salt.

The target in one assay is canine TRPM8 (Canis lupus familiaris, UniProt Q1A7N1). Kind of assay: In vitro canine TRPM8 functional assay (Ca2+-sensitive fluorescent dye, icilin activation). The assay is classed as cell-based. The following applies: HEK293 cells stably expressing canine TRPM8, icilin-induced Ca2+ response; for IC50: eight-point concentration-response.
In the next assay the test system is Male Sprague Dawley rats. The assay can be described thus: Inhibition of icilin-induced "wet-dog" shakes in rats. To be noted: 10 mg/kg p.o. in 10% HP-β-CD, 60 min before icilin 3.0 mg/kg i.p.; rat wet-dog shakes. In kind it is in vivo. How it is done:
Male Sprague Dawley rats (220-450 g, Charles River Labs, n=6-9/treatment) were used to evaluate the ability of test compounds to block icilin-induced “wet-dog” shakes (WDS). The test compound was administered in 10% hydroxypropyl-β-cyclodextrin (HP-β-CD), p.o., 60 min before icilin. Icilin was then administered in 10% solutol/H2O, at 3.0 mg/kg, i.p., and spontaneous “wet-dog” shakes were counted 10 min following the icilin injection over a 10-min period.

Chain of canine TRPM8 (Q1A7N1 1-1104): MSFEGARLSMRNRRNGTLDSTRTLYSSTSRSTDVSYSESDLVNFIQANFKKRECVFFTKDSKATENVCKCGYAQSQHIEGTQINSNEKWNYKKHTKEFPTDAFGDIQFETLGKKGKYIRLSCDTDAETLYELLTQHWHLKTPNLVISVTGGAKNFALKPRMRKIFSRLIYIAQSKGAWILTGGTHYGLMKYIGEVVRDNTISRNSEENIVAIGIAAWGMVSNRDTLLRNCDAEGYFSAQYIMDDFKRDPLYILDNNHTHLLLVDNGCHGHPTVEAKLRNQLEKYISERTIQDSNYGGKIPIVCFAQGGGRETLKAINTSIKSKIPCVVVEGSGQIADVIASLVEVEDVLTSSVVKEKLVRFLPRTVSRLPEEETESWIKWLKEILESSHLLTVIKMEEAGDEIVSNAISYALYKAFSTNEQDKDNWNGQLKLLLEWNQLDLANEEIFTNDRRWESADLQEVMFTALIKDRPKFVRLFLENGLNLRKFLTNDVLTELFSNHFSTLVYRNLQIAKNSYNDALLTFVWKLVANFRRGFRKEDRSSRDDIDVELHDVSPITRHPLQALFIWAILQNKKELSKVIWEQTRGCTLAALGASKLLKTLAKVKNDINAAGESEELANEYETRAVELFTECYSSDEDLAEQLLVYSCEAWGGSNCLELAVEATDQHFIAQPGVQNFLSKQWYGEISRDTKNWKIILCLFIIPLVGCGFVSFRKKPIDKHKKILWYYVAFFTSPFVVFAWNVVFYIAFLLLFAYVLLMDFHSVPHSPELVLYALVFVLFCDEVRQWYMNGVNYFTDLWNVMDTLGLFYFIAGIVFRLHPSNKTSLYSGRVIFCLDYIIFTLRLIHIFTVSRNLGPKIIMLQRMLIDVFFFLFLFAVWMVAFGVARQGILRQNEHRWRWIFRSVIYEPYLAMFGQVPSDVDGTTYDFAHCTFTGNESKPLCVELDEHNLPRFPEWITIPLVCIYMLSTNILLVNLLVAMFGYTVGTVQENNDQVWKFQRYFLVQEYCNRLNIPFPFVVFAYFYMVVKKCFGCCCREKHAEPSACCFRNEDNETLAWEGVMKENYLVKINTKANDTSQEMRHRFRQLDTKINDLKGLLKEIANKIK

Take `COc1nc(-c2ccccc2Cl)cc2nc(-c3c(C#N)c(C(C)(C)C)nn3C)[nH]c12.CS(=O)(=O)O` [Compound 17, 3-tert-Butyl-5-[6-(2-chloro-phenyl)-4-methoxy-3H-imidazo[4,5-c]pyridine-2-yl]-1-methyl-1H-pyrazole-4-carbonitrile methanesulfonic acid salt]: the inhibition at 0.2 µM against canine TRPM8 (0.2 μM compound) stood at 99%. The IC50 against canine TRPM8 came out at 1.7 nM. Also, the “Icilin % Inhibition @ 1.5 h, 10 mg/kg” value in the assay on Male Sprague Dawley rats is given as 38%.

Take `Cn1nc2c(c1-c1nc3c(Cl)nc(-c4ccccc4C(F)(F)F)cc3[nH]1)CCC21CCCCC1` [Compound 72, 3′-{4-Chloro-6-[2-(trifluoromethyl)phenyl]-1H-imidazo[4,5-c]pyridin-2-yl}-2′-methyl-4′,5′-dihydro-2′H-spiro[cyclohexane-1,6′-cyclopenta[c]pyrazole] hydrochloride]: the inhibition at 0.2 µM against canine TRPM8 (0.2 μM compound) stood at 95%. Moreover, on canine TRPM8, the half-maximal inhibitory concentration (IC50) stood at 63 nM.

In the case of `Cn1nc(C(C)(C)C)cc1-c1nc2nc(-c3ccccc3C(F)(F)F)ccc2[nH]1` [Compound 34, 2-(5-tert-Butyl-2-methyl-2H-pyrazol-3-yl)-5-(2-trifluoromethyl-phenyl)-1H-imidazo[4,5-b]pyridine], the inhibition at 0.2 µM on canine TRPM8 (0.2 μM compound) is 89%. Besides, the IC50 at canine TRPM8 was found to be 77 nM.

For the compound `Cn1nc(C(C)(C)C)cc1-c1nc2cc(-c3ccccc3OC(F)(F)F)ncc2[nH]1` [Compound 39, 2-(5-tert-Butyl-2-methyl-2H-pyrazol-3-yl)-6-(2-trifluoromethoxy-phenyl)-3H-imidazo[4,5-c]pyridine hydrochloride], the inhibition at 0.2 µM against canine TRPM8 (HEK293, 0.2 μM compound) is 69%. On canine TRPM8, this compound showed an IC50 of 75 nM.

Consider `Cn1nc(C(C)(C)C)c(Cl)c1-c1nc2nc(-c3ccccc3C(F)(F)F)cc(Cl)c2[nH]1` [compound 5, hydrochloride], for which the inhibition at 0.2 µM at canine TRPM8 (0.2 μM compound) worked out at 99%.

With `Cn1nc(C(C)(C)C)c(Cl)c1-c1nc2cc(-c3ccccc3C(F)(F)F)nc(OCCO)c2[nH]1` [Compound 57, 2-[2-(5-tert-Butyl-4-chloro-2-methyl-2H-pyrazol-3-yl)-6-(2-trifluoromethyl-phenyl)-3H-imidazo[4,5-c]pyridin-4-yloxy]-ethanol], on canine TRPM8 (0.2 μM compound), the inhibition at 0.2 µM was found to be 101%. The same compound gave an IC50 at canine TRPM8 of 1.6 nM.

For `Cl.Cn1nc(C(C)(C)C)c(Cl)c1-c1nc2cc(-c3ccccc3F)ncc2[nH]1` [Compound 43, 2-(5-tert-Butyl-4-chloro-2-methyl-2H-pyrazol-3-yl)-6-(2-fluoro-phenyl)-3H-imidazo[4,5-c]pyridine hydrochloride], on canine TRPM8 (0.2 μM compound, hydrochloride), the “% Inh @ 0.2 μM” value is reported as 100%. The compound further registered a concentration for half-maximal inhibition (IC50) at canine TRPM8 of 22 nM.

As to `Cn1nc(C(C)(C)C)c(Cl)c1-c1nc2cc(-c3ccccc3OC(F)(F)F)nc(OCC(F)(F)F)c2[nH]1` [Compound 90, 2-(5-tert-Butyl-4-chloro-2-methyl-2H-pyrazol-3-yl)-4-(2,2,2-trifluoro-ethoxy)-6-(2-trifluoromethoxyphenyl)-3H-imidazo[4,5-c]pyridine sodium salt], on canine TRPM8 (0.2 μM compound), the inhibition at 0.2 µM worked out at 99%. At canine TRPM8, this compound gave an IC50 of 0.73 nM.

In the case of `COCCOc1nc(-c2ccccc2C(F)(F)F)cc2nc(-c3c(C#N)c(C(C)(C)C)nn3C)[nH]c12` [Compound 21, 3-tert-Butyl-5-[4-(2-methoxy-ethoxy)-6-(2-trifluoromethyl-phenyl)-3H-imidazo[4,5-c]pyridine-2-yl]-1-methyl-1H-pyrazole-4-carbonitrile benzenesulfonic acid salt], the inhibition at 0.2 µM at canine TRPM8 (0.2 μM compound) is 99%. Further, on canine TRPM8, the IC50 is 0.69 nM.

For the compound `Cn1nc(C(C)(C)C)c(C#N)c1-c1nc2cc(-c3ccccc3C(F)(F)F)nc(OCCO)c2[nH]1` [Compound 84, 3-tert-Butyl-5-[4-(2-hydroxy-ethoxy)-6-(2-trifluoromethyl-phenyl)-3H-imidazo[4,5-c]pyridin-2-yl]-1-methyl-1H-pyrazole-4-carbonitrile], on canine TRPM8 (0.2 μM compound), the inhibition at 0.2 µM was 100%. The same compound yielded an IC50 on canine TRPM8 of 1.9 nM.

`CC(C)(C)c1cc(-c2nc3nc(-c4ccccc4Cl)ccc3[nH]2)on1` [Compound 26, 2-(3-tert-Butyl-isoxazol-5-yl)-5-(2-chloro-phenyl)-1H-imidazo[4,5-b]pyridine]: on canine TRPM8 (0.2 μM compound), the inhibition at 0.2 µM turned out to be 100%. For the same compound, the IC50 at canine TRPM8 was determined as 35 nM.

Regarding `CC(C)(C)c1cc(-c2nc3nc(-c4ccccc4F)ccc3[nH]2)on1` [Compound 30, 2-(3-tert-Butyl-isoxazol-5-yl)-5-(2-fluoro-phenyl)-1H-imidazo[4,5-b]pyridine], at canine TRPM8 (0.2 μM compound), the inhibition at 0.2 µM turned out to be 87%. On canine TRPM8, the IC50 was determined as 87 nM.

On to `COCCOc1cc(-c2ccccc2C(F)(F)F)nc2nc(-c3c(Cl)c(C(C)(C)C)nn3C)[nH]c12` [Compound 76, 2-(5-tert-Butyl-4-chloro-2-methyl-2H-pyrazol-3-yl)-7-(2-methoxy-ethoxy)-5-(2-trifluoromethyl-phenyl)-1H-imidazo[4,5-b]pyridine methanesulfonic acid salt], for which, at canine TRPM8 (HEK293, 0.2 μM compound), the inhibition at 0.2 µM was determined as 98%. On canine TRPM8, the IC50 came out at 5.8 nM.

On to `Cn1nc(C(C)(C)C)c(Cl)c1-c1nc2cc(-c3ccccc3Cl)nc(OCCN3CCCC3)c2[nH]1` [Compound 51, 2-(5-tert-Butyl-4-chloro-2-methyl-2H-pyrazol-3-yl)-6-(2-chloro-phenyl)-4-(2-pyrrolidin-1-yl-ethoxy)-3H-imidazo[4,5-c]pyridine], for which the inhibition at 0.2 µM against canine TRPM8 (0.2 μM compound) turned out to be 88%. For the same compound, on canine TRPM8, the IC50 was found to be 72 nM.

Take `Cn1nc(C(C)(C)C)c(C#N)c1-c1nc2cc(-c3ccccc3C(F)(F)F)ncc2[nH]1` [Compound 45, 3-tert-Butyl-1-methyl-5-[6-(2-trifluoromethyl-phenyl)-3H-imidazo[4,5-c]pyridin-2-yl]1H-pyrazole-4-carbonitrile hydrochloride]: the inhibition at 0.2 µM against canine TRPM8 (0.2 μM compound) was determined as 98%. In addition, the IC50 against canine TRPM8 was 27 nM.

Consider `Cn1nc(C(C)(C)C)c(Cl)c1-c1nc2cc(-c3ccccc3Cl)nc(OCC(=O)O)c2[nH]1` [Compound 87, [2-(5-tert-Butyl-4-chloro-2-methyl-2H-pyrazol-3-yl)-6-(2-chloro-phenyl)-3H-imidazo[4,5-c]pyridin-4-yloxy]-acetic acid], for which, at canine TRPM8 (HEK293, 0.2 μM compound), the inhibition at 0.2 µM is 72%. The compound further gave an IC50 at canine TRPM8 of 131 nM.
